From patent US6017883A, “Composition and methods for the inhibition of phagocytes” (Research Corporation Technologies, Inc., priority 1998, dated 2000)
Where no end group is shown, it is not given here.

How the values were obtained:
PMN [1] = conditions: pertussis toxin pretreatment of indo-loaded PMN
PMN [2] = assay: fMLP-induced PMN calcium transients; format: cell-based, human; conditions: pertussis toxin pretreatment of indo-loaded PMN
PMN [3] = assay: PMN viability by LDH release; conditions: concentrations that inhibited chemotaxis and oxidant production
Experimental: PMN viability after exposure to NIP (seq id no:1) or control peptide for varying amounts of time was assessed by measuring LDH release using a commercially available kit (Sigma).

Row | Substance | ionomycin-induced rise in cytosolic calcium (PMN [1]) | rise in cytosolic calcium concentration induced by 1 μM fMLP (PMN [2]) | cellular viability as determined by LDH release (PMN [3])
1 | pertussis toxin | no effect | Attenuation | –
2 | REGSYFFGDNA [NIP, Arg-Glu-Gly-Ser-Tyr-Phe-Phe-Gly-Asp-Asn-Ala] | – | – | did not significantly alter cellular viability
